Where two headings read alike, the source gives them in different places.
Tests used:
Type in all cases: in vivo
[1] = test system: Echinochloa crus galli, barnyardgrass (ECHCG); assay: Biological Example 3 glasshouse screen, post-emergence herbicidal activity; conditions: 360 h, read-out: ECHCG percentage phytotoxicity; for pest or weed control at 60 g/ha: application rate 60 g/ha
Procedure: (§1) Test Method: Seeds of a variety of test species are sown in standard soil in pots. After cultivation for one day (pre-emergence) or after 12 days cultivation (post-emergence) under controlled conditions in a glasshouse (warm climate species at 24/18°C., cool climate species at 20/16°C., both at day/night; 16 hours light; 65% humidity), the plants are sprayed with an aqueous spray solution derived from the formulation of the “technical”(i.e. unformulated) active ingredient dissolved in acetone plus IF50, at a 1:20 ratio of “technical”active ingredient to IF50. The IF50 contains about 10.56 weight % Emulsogen EL™(castor oil ethoxylate, CAS Registry number 61791-12-6), about 42.22 weight % N-methylpyrrolidone, and about 42.22 weight % DPG-Monoethyl ether (dipropylene glycol mono-ethyl ether). The adjuvant X-77 (a mixture of alkyl aryl polyoxyethylene glycols and free fatty acids in isopropanol, CAS Registry number 11097-66-8) is added to the aqueous spray solution to form a 0.2% v/v solution, before spraying onto the plants.
(§2) The test plants are then grown in a glasshouse under controlled conditions in a glasshouse (at 24/18°C. or 20/16°C., day/night; 16 hours light; 65% humidity) and watered twice daily. After 15 days after application of the herbicide (15 DAA) (for post-emergence), and after 20 DAA (for pre-emergence), the test is evaluated visually, and an assessed percentage phytotoxicity score is given for each herbicidal application on each plant/weed species (with 100%=total damage to plant; 0%=no damage to plant). […]

[2] = test system: Avena fatua, wild oats (AVEFA); assay: as above; conditions: 360 h, read-out: AVEFA percentage phytotoxicity; for pest or weed control at 60 g/ha: application rate 60 g/ha
Procedure: as §1, §2

[3] = test system: Lolium perenne, perennial ryegrass (LOLPE); assay: as above; conditions: 360 h, read-out: LOLPE percentage phytotoxicity; for pest or weed control at 60 g/ha: application rate 60 g/ha
Procedure: as §1, §2

[4] = test system: Alopecurus myosuroides, blackgrass (ALOMY); assay: as above; conditions: 360 h, read-out: ALOMY percentage phytotoxicity; for pest or weed control at 60 g/ha: application rate 60 g/ha
Procedure: as §1, §2

[5] = test system: Echinochloa crus-galli (ECHCG); assay: Biological Example 1 glasshouse screen, pre-emergence herbicidal activity; conditions: 312 h, read-out: ECHCG percentage phytotoxicity
Procedure: (§3) Seeds of a variety of test species were sown in standard soil in pots. After cultivation for one day (pre-emergence) or after 8 days cultivation (post-emergence) under controlled conditions in a glasshouse (at 24/16°C., day/night; 14 hours light; 65% humidity), the plants were sprayed with an aqueous spray solution derived from the formulation of the “technical”(i.e. unformulated) active ingredient in acetone/water (50:50) solution containing 0.5% Tween 20 (polyoxyethylene sorbitan monolaurate, CAS Registry Number 9005-64-5). The test plants were then grown in a glasshouse under controlled conditions in a glasshouse (at 24/16°C., day/night; 14 hours light; 65% humidity) and watered twice daily. After 13 days for pre- or post-emergence, the test was evaluated visually, and an assessed percentage phytotoxicity score given for each herbicidal application on each plant/weed species (with 100%=total damage to plant; 0%=no damage to plant).
(§4) Test plants: Alopecurus myosuroides (ALOMY), Setaria faberi (SETFA), Echinochloa crus-galli (ECHCG), Solanum nigrum (SOLNI), Amaranthus retroflexus (AMARE) and Ipomoea hederacea (IPOHE). ALOMY, SETFA and ECHCG are grassy monocotyledonous weeds. SOLNI, AMARE and IPOHE are dicotyledonous (broadleaved) weeds.
(§5) Test plants: Lolium perenne (LOLPE), Alopecurus myosuroides (ALOMY), Echinochloa crus-galli (ECHCG), and Avena fatua (AVEFA). All four of these are grassy monocotyledonous weeds.

[6] = test system: Alopecurus myosuroides (ALOMY); assay: as above; conditions: 312 h, read-out: ALOMY percentage phytotoxicity
Procedure: as §3, §4, §5

Avena fatua (AVEFA) [7] = assay: Biological Example 1 glasshouse screen, post-emergence herbicidal activity; conditions: 312 h, read-out: AVEFA percentage phytotoxicity
Procedure: as §3, §5

Lolium perenne (LOLPE) [8] = assay: as above; conditions: 312 h, read-out: LOLPE percentage phytotoxicity
Procedure: as §3, §5

[9] = test system: Triticum aestivum, wheat (TRZAW); assay: Biological Example 3 glasshouse screen, post-emergence, phytotoxicity on wheat; conditions: 360 h, read-out: TRZAW percentage phytotoxicity; for pest or weed control at 60 g/ha: application rate 60 g/ha
Procedure: as §1
The test plants are then grown in a glasshouse under controlled conditions in a glasshouse (at 24/18°C. or 20/16°C., day/night; 16 hours light; 65% humidity) and watered twice daily. After 15 days after application of the herbicide (15 DAA) (for post-emergence), and after 20 DAA (for pre-emergence), the test is evaluated visually, and an assessed percentage phytotoxicity score is given for each herbicidal application on each plant/weed species (with 100%=total damage to plant; 0%=no damage to plant).
These give an approximate indication of the level of selectivity on wheat for these tested compounds, when a herbicide safener such as cloquintocet-mexyl is not used: […]

[10] = test system: Echinochloa crus-galli (ECHCG); assay: Biological Example 1 glasshouse screen, post-emergence herbicidal activity; conditions: 312 h, read-out: ECHCG percentage phytotoxicity
Procedure: as §3, §4, §5

[11] = test system: Alopecurus myosuroides (ALOMY); assay: as above; conditions: 312 h, read-out: ALOMY percentage phytotoxicity
Procedure: as §3, §4, §5

Avena fatua (AVEFA) [12] = assay: Biological Example 2 post-emergence herbicidal activity (comparative data)
Procedure: as §3
(§6) Comparative herbicidal data are given for certain exemplified compounds with 4-(prop-1-ynyl)-2,6-dimethylphenyl or 4-(chloroethynyl)-2,6-dimethylphenyl headgroups, compared to the corresponding comparative compounds with 4-ethynyl-2,6-dimethylphenyl headgroups, as follows.
(§7) Except where specified otherwise, the glasshouse screen for herbicidal activity is substantially the same as that presented in Biological Example 1 hereinabove. The weed abbreviations are as defined in Biological Example 1.

[13] = test system: Echinochloa crus-galli (ECHCG); assay: as above; conditions: 312 h, read-out: ECHCG percentage phytotoxicity
Procedure: as §3, §6, §7

[14] = test system: Alopecurus myosuroides (ALOMY); assay: as above; conditions: 312 h, read-out: ALOMY percentage phytotoxicity
Procedure: as §3, §6, §7

Lolium perenne (LOLPE) [15] = assay: as above
Procedure: as §3, §6, §7

Avena fatua (AVEFA) [16] = assay: Biological Example 1 glasshouse screen, pre-emergence herbicidal activity; conditions: 312 h, read-out: AVEFA percentage phytotoxicity
Procedure: as §3, §5

Lolium perenne (LOLPE) [17] = assay: as above; conditions: 312 h, read-out: LOLPE percentage phytotoxicity
Procedure: as §3, §5

Setaria faberi (SETFA) = assay: Biological Example 2 post-emergence herbicidal activity (comparative data)
Procedure: as §3, §6, §7

[18] = application rate 30 g/ha, 15 DAA, no safener
[19] = application rate 250 g/ha, evaluated after 13 days

Compound | AVEFA percentage phytotoxicity (Avena fatua (AVEFA) [12]; 15.625 g/ha application rate) | AVEFA percentage phytotoxicity (Avena fatua (AVEFA) [12]; 62.5 g/ha application rate) | LOLPE percentage phytotoxicity (Lolium perenne (LOLPE) [15]; 15.625 g/ha application rate) | LOLPE percentage phytotoxicity (Lolium perenne (LOLPE) [15]; 62.5 g/ha application rate) | pest or weed control at 60 g/ha ([1]; 15 DAA, no safener) | pest or weed control at 60 g/ha ([2]; 15 DAA, no safener) | pest or weed control at 60 g/ha ([3]; 15 DAA, no safener) | pest or weed control at 60 g/ha ([4]; 15 DAA, no safener) | pest or weed control at 250 g/ha [5, 19] | pest or weed control at 250 g/ha [6, 19] | pest or weed control at 250 g/ha (Avena fatua (AVEFA) [7]; [19]) | pest or weed control at 250 g/ha (Lolium perenne (LOLPE) [8]; [19]) | pest or weed control at 60 g/ha ([9]; 15 DAA, no safener) | pest or weed control at 250 g/ha [10, 19] | pest or weed control at 250 g/ha [11, 19] | pest or weed control at 250 g/ha (Avena fatua (AVEFA) [16]; [19]) | pest or weed control at 15.625 g/ha ([13]; 15.625 g/ha application rate) | pest or weed control at 62.5 g/ha ([13]; 62.5 g/ha application rate) | pest or weed control at 15.625 g/ha ([14]; 15.625 g/ha application rate) | pest or weed control at 62.5 g/ha ([14]; 62.5 g/ha application rate) | other results
CC#Cc1cc(C)c(C2=C(O)CC(Cc3ccccn3)C2=O)c(C)c1 (racemic) [Compound A-2, rac-2-(2,6-Dimethyl-4-prop-1-ynylphenyl)-4-(pyridin-2-ylmethyl)cyclopentane-1,3-dione] | 80% | 90% | 100% | 100% |  |  |  |  |  |  |  |  |  |  |  |  |  |  |  |  | pest or weed control at 30 g/ha [1]: 100%; pest or weed control at 30 g/ha [2]: 70%; pest or weed control at 30 g/ha [3]: 90%; pest or weed control at 30 g/ha [4]: 90%; pest or weed control at 250 g/ha [5]: 100%; pest or weed control at 250 g/ha [6]: 100%; pest or weed control at 250 g/ha (Avena fatua (AVEFA) [7]): 100%; pest or weed control at 250 g/ha (Lolium perenne (LOLPE) [8]): 100%; plant injury at 30 g/ha [9]: 30%; pest or weed control at 250 g/ha [10]: 100%; pest or weed control at 250 g/ha [11]: 100%; pest or weed control at 15.625 g/ha [13]: 100%; pest or weed control at 62.5 g/ha [13]: 100%; pest or weed control at 15.625 g/ha [14]: 90%; pest or weed control at 62.5 g/ha [14]: 100%; pest or weed control at 250 g/ha (Avena fatua (AVEFA) [16]): 70%; pest or weed control at 250 g/ha (Lolium perenne (LOLPE) [17]): 100%
CC#Cc1cc(C)c(C2=C(O)CC(Cc3cccc(C)n3)C2=O)c(C)c1 (stereo not drawn) [Compound A-9] |  |  |  |  | 100% | 30% | 100% | 80% | 100% | 100% | 100% | 100% | 30% | 100% | 90% | 100% |  |  |  |  | pest or weed control at 30 g/ha [1, 18]: 70%; pest or weed control at 30 g/ha [2, 18]: 30%; pest or weed control at 30 g/ha [3, 18]: 50%; pest or weed control at 30 g/ha [4, 18]: 70%; pest or weed control at 30 g/ha [9, 18]: 20%; pest or weed control at 250 g/ha (Lolium perenne (LOLPE) [17]; [19]): 100%
CC#Cc1cc(C)c(C2=C(O)CC(Cc3cccnc3)C2=O)c(C)c1 (stereo not drawn) [Compound A-10] |  |  |  |  | 80% | 50% | 40% | 80% | 100% | 80% | 90% | 100% | 50% | 100% | 90% | 90% |  |  |  |  | pest or weed control at 250 g/ha (Lolium perenne (LOLPE) [17]; [19]): 100%
CC#Cc1cc(C)c(C2=C(O)CC(Cc3cccnc3C#CC)C2=O)c(C)c1 (stereo not drawn) [Compound A-15] |  |  |  |  | 80% | 80% | 40% | 50% | 100% | 90% | 100% | 100% | 30% | 100% | 90% | 70% |  |  |  |  | pest or weed control at 250 g/ha (Lolium perenne (LOLPE) [17]; [19]): 100%
C#Cc1cc(C)c(C2=C(O)CC(Cc3ccccn3)C2=O)c(C)c1 (stereo not drawn) [X-1, reference compound] | 50% | 90% | 60% | 100% |  |  |  |  |  |  |  |  |  |  |  |  | 70% | 80% | 60% | 100% | 
C#Cc1cc(C)c(C2=C(O)CC(CC3CCOCC3)C2=O)c(C)c1 (stereo not drawn) [X-2, reference compound] | 90% | 90% | 80% | 90% |  |  |  |  |  |  |  |  |  |  |  |  | 70% | 90% | 60% | 90% | 
C#Cc1cc(C)c(C2C(=O)CCC2=O)c(C)c1 [X-3, reference compound] |  |  |  |  |  |  |  |  |  |  |  |  |  |  |  |  | 0% | 20% | 0% | 0% | SETFA percentage phytotoxicity (Setaria faberi (SETFA); 15.625 g/ha application rate): 0%; SETFA percentage phytotoxicity (Setaria faberi (SETFA); 62.5 g/ha application rate): 0%
C#Cc1cc(C)c(C2C(=O)C3C(C2=O)[C@H]2CC[C@@H]3O2)c(C)c1 (stereo partly drawn) [X-4, reference compound] |  |  |  |  |  |  |  |  |  |  |  |  |  |  |  |  | 80% | 80% | 30% | 80% | SETFA percentage phytotoxicity (Setaria faberi (SETFA); 15.625 g/ha application rate): 40%; SETFA percentage phytotoxicity (Setaria faberi (SETFA); 62.5 g/ha application rate): 40%

Reference: patent publication US9107415B2, “2-(substituted-phenyl)-cyclopentane-1,3-dione compounds, and derivatives thereof” (Syngenta Limited, priority 2011, dated 2015)
